From PubChem BioAssay (NCI)
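Each compound was tested at five concentrations against cells in 96-well plates for 48 hours. GI50: concentration for 50% inhibition of growth. TGI is the concentration that stops growth completely.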

Tests used:
Experiment in all cases: growth of human tumour cells (NCI), 48 h
HCT-15 colon = tested on: HCT-15 colon
HS 578T breast = tested on: HS 578T breast
A549 NSCLC = tested on: A549 NSCLC
SF-295 CNS = tested on: SF-295 CNS
COLO 205 colon = tested on: COLO 205 colon
PC-3 prostate = tested on: PC-3 prostate
MDA-MB-435 = tested on: MDA-MB-435
DU-145 prostate = tested on: DU-145 prostate
HCC-2998 colon = tested on: HCC-2998 colon
OVCAR-3 ovarian = tested on: OVCAR-3 ovarian
BT-549 breast = tested on: BT-549 breast
M14 melanoma = tested on: M14 melanoma
K-562 leukemia = tested on: K-562 leukemia
SR leukemia = tested on: SR leukemia
A498 renal = tested on: A498 renal
OVCAR-5 ovarian = tested on: OVCAR-5 ovarian
SF-539 CNS = tested on: SF-539 CNS
HT29 colon = tested on: HT29 colon
SK-MEL-28 melanoma = tested on: SK-MEL-28 melanoma
MDA-MB-231 breast = tested on: MDA-MB-231 breast
786-0 renal = tested on: 786-0 renal
SK-OV-3 ovarian = tested on: SK-OV-3 ovarian
TK-10 renal = tested on: TK-10 renal
SNB-19 CNS = tested on: SNB-19 CNS
NCI-H522 lung = tested on: NCI-H522 lung
SW-620 colon = tested on: SW-620 colon
NCI-H460 lung = tested on: NCI-H460 lung
HOP-92 NSCLC = tested on: HOP-92 NSCLC
SK-MEL-5 melanoma = tested on: SK-MEL-5 melanoma
UACC-62 melanoma = tested on: UACC-62 melanoma
MOLT-4 leukemia = tested on: MOLT-4 leukemia
OVCAR-4 ovarian = tested on: OVCAR-4 ovarian
NCI-H226 lung = tested on: NCI-H226 lung
IGROV1 ovarian = tested on: IGROV1 ovarian
HCT-116 colon = tested on: HCT-116 colon
RPMI-8226 leukemia = tested on: RPMI-8226 leukemia
NCI-H23 lung = tested on: NCI-H23 lung
SNB-75 CNS = tested on: SNB-75 CNS
OVCAR-8 ovarian = tested on: OVCAR-8 ovarian
CCRF-CEM leukemia = tested on: CCRF-CEM leukemia
T-47D breast = tested on: T-47D breast
UO-31 renal = tested on: UO-31 renal
U251 CNS = tested on: U251 CNS
UACC-257 melanoma = tested on: UACC-257 melanoma
MCF7 breast = tested on: MCF7 breast
RXF 393 renal = tested on: RXF 393 renal
EKVX NSCLC = tested on: EKVX NSCLC
LOX IMVI melanoma = tested on: LOX IMVI melanoma
ACHN renal = tested on: ACHN renal
NCI/ADR-RES ovarian = tested on: NCI/ADR-RES ovarian
HOP-62 NSCLC = tested on: HOP-62 NSCLC
KM12 colon = tested on: KM12 colon
CAKI-1 renal = tested on: CAKI-1 renal
SN12C renal = tested on: SN12C renal
SK-MEL-2 melanoma = tested on: SK-MEL-2 melanoma
SF-268 CNS = tested on: SF-268 CNS
HL-60(TB) leukemia = tested on: HL-60(TB) leukemia

Structure (SMILES): O=C1OCC2=C1C(c1cccc(F)c1)c1cc3c(cc1N2CCO)CCC3 (stereo not drawn)
- GI50 (HCT-15 colon): 46.4 nM
- TGI (HCT-15 colon): > 20200 nM
- GI50 (HS 578T breast): 50.9 nM
- TGI (HS 578T breast): > 30600 nM
- GI50 (A549 NSCLC): 113 nM
- TGI (A549 NSCLC): > 50000 nM
- GI50 (SF-295 CNS): 23.3 nM
- TGI (SF-295 CNS): 10800 nM
- GI50 (COLO 205 colon): 152 nM
- GI50 (PC-3 prostate): 65.7 nM
- TGI (PC-3 prostate): > 50000 nM
- GI50 (MDA-MB-435): 16.6 nM
- TGI (MDA-MB-435): 68.4 nM
- GI50 (DU-145 prostate): 162 nM
- TGI (DU-145 prostate): > 24400 nM
- GI50 (HCC-2998 colon): 148 nM
- TGI (HCC-2998 colon): 11000 nM
- GI50 (OVCAR-3 ovarian): 29.3 nM
- TGI (OVCAR-3 ovarian): 3920 nM
- GI50 (BT-549 breast): 161 nM
- TGI (BT-549 breast): 6950 nM
- GI50 (M14 melanoma): 49.1 nM
- TGI (M14 melanoma): > 20900 nM
- GI50 (K-562 leukemia): 28 nM
- TGI (K-562 leukemia): > 50000 nM
- GI50 (SR leukemia): 28.5 nM
- TGI (SR leukemia): 37400 nM
- GI50 (A498 renal): 13.8 nM
- TGI (A498 renal): 261 nM
- GI50 (OVCAR-5 ovarian): 205 nM
- TGI (OVCAR-5 ovarian): > 50000 nM
- GI50 (SF-539 CNS): 49.1 nM
- TGI (SF-539 CNS): 434 nM
- GI50 (HT29 colon): 92.2 nM
- TGI (HT29 colon): > 18900 nM
- GI50 (SK-MEL-28 melanoma): 655 nM
- TGI (SK-MEL-28 melanoma): > 50000 nM
- GI50 (MDA-MB-231 breast): 218 nM
- TGI (MDA-MB-231 breast): > 22200 nM
- GI50 (786-0 renal): 71.8 nM
- TGI (786-0 renal): > 50000 nM
- GI50 (SK-OV-3 ovarian): 844 nM
- TGI (SK-OV-3 ovarian): > 50000 nM
- GI50 (TK-10 renal): 433 nM
- TGI (TK-10 renal): > 50000 nM
- GI50 (SNB-19 CNS): 113 nM
- TGI (SNB-19 CNS): > 50000 nM
- GI50 (NCI-H522 lung): 16.9 nM
- TGI (NCI-H522 lung): 704 nM
- GI50 (SW-620 colon): 57.1 nM
- TGI (SW-620 colon): > 50000 nM
- GI50 (NCI-H460 lung): 60.9 nM
- TGI (NCI-H460 lung): 6970 nM
- GI50 (HOP-92 NSCLC): 1620 nM
- TGI (HOP-92 NSCLC): 49600 nM
- GI50 (SK-MEL-5 melanoma): 62.6 nM
- TGI (SK-MEL-5 melanoma): 2580 nM
- GI50 (UACC-62 melanoma): 22.7 nM
- TGI (UACC-62 melanoma): 33400 nM
- GI50 (MOLT-4 leukemia): 237 nM
- TGI (MOLT-4 leukemia): > 50000 nM
- GI50 (OVCAR-4 ovarian): 1760 nM
- TGI (OVCAR-4 ovarian): > 50000 nM
- GI50 (NCI-H226 lung): 1020 nM
- TGI (NCI-H226 lung): > 47600 nM
- GI50 (IGROV1 ovarian): 81.7 nM
- TGI (IGROV1 ovarian): > 50000 nM
- GI50 (HCT-116 colon): 81.9 nM
- TGI (HCT-116 colon): > 50000 nM
- GI50 (RPMI-8226 leukemia): 167 nM
- TGI (RPMI-8226 leukemia): 29700 nM
- GI50 (NCI-H23 lung): 248 nM
- TGI (NCI-H23 lung): > 50000 nM
- GI50 (SNB-75 CNS): 13.6 nM
- TGI (SNB-75 CNS): 47400 nM
- GI50 (OVCAR-8 ovarian): 139 nM
- TGI (OVCAR-8 ovarian): > 50000 nM
- GI50 (CCRF-CEM leukemia): 168 nM
- TGI (CCRF-CEM leukemia): > 50000 nM
- GI50 (T-47D breast): 2930 nM
- TGI (T-47D breast): > 50000 nM
- GI50 (UO-31 renal): 107 nM
- TGI (UO-31 renal): > 42500 nM
- GI50 (U251 CNS): 90.4 nM
- TGI (U251 CNS): > 34000 nM
- GI50 (UACC-257 melanoma): 12200 nM
- TGI (UACC-257 melanoma): > 50000 nM
- GI50 (MCF7 breast): 22.9 nM
- TGI (MCF7 breast): > 29000 nM
- GI50 (RXF 393 renal): 91.4 nM
- TGI (RXF 393 renal): > 50000 nM
- GI50 (EKVX NSCLC): 162 nM
- TGI (EKVX NSCLC): > 50000 nM
- GI50 (LOX IMVI melanoma): 95.8 nM
- TGI (LOX IMVI melanoma): 10100 nM
- GI50 (ACHN renal): 129 nM
- TGI (ACHN renal): > 50000 nM
- GI50 (NCI/ADR-RES ovarian): 43.5 nM
- TGI (NCI/ADR-RES ovarian): > 50000 nM
- GI50 (HOP-62 NSCLC): 798 nM
- TGI (HOP-62 NSCLC): > 50000 nM
- GI50 (KM12 colon): 55.9 nM
- TGI (KM12 colon): > 50000 nM
- GI50 (CAKI-1 renal): 38.1 nM
- TGI (CAKI-1 renal): > 33300 nM
- GI50 (SN12C renal): 233 nM
- TGI (SN12C renal): > 50000 nM
- GI50 (SK-MEL-2 melanoma): 1070 nM
- TGI (SK-MEL-2 melanoma): 39000 nM
- GI50 (SF-268 CNS): 122 nM
- TGI (SF-268 CNS): 25200 nM
- GI50 (HL-60(TB) leukemia): 77.3 nM
- TGI (HL-60(TB) leukemia): 376 nM
